Columns and labels:
Format in all cases: cell-based, human
[1] = test system: PBMCs from DLBCL patients; experiment: γ-IFN release ELISPOT, PBMCs of DLBCL patients after short-term culture with peptides; parameters: γ-IFN response to peptides: unit not given here; settings: for γ-IFN response to peptides: triplicate ELISPOT
[2] = test system: PBMCs from healthy donors; experiment: γ-IFN release ELISPOT, PBMCs of healthy donors after short-term culture with peptides; settings: triplicate ELISPOT, ± SD
[3] = test system: OCI-Ly3 (DLBCL) cell line; experiment: 51Cr release cytolytic assay of peptide-specific CTL/TH cell lines; settings: PASD1-positive OCI-Ly3; 18 h 51Cr release
Protocol: (§1) A conventional ^51Cr-labelling release assay was used to investigate the ability of CTL and TH cell lines generated from DLBCL patients to lyse PASD1-positive tumour target cells. The target cell lines, consisting of the OCI-Ly3, SUDHL-6, KM-H2 and Thiel, were radiolabelled with 100 μCi ^51Cr for 90 minutes. […] The incubation period of the TH with the target cells was increased to 18 hours. Maximum ^51Cr release was determined following the addition of 10% Triton-X to the radiolabelled target cells and spontaneous release was assessed by adding RPMI1640/FCS to the target cells. The supernatant was harvested and counted in a gamma-counter (Beckmann, Heidelberg, Germany).

[4] = test system: SUDHL-6 (DLBCL) cell line; experiment: as above; settings: PASD1-negative SUDHL-6; 18 h 51Cr release
Protocol: as §1

[5] = test system: Thiel (myeloma) cell line; experiment: as above; settings: PASD1-positive Thiel; 18 h 51Cr release
Protocol: as §1

[6] = Patient 1, De novo DLBCL, DRB1-0102, group Significant response, ± SD
[7] = Patient 2, De novo DLBCL, DRB1-0101, group Significant response, ± SD
[8] = Patient 3, De novo DLBCL, DRB1-0301, group Significant response, ± SD
[9] = Patient 4, De novo DLBCL, DRB1-0102, group Significant response, ± SD
[10] = Patient 8, De novo DLBCL, DRB1-1501, group Significant response, ± SD
[11] = Patient 9, De novo DLBCL, DRB1-0301, group Significant response, ± SD
[12] = Patient 10, De novo DLBCL, DRB1-0101, group No significant response, ± SD
[13] = Patient 12, De novo DLBCL, DRB1-0401, group Significant response, ± SD
[14] = Patient 15, De novo DLBCL, DRB1-1301, group No significant response, ± SD
[15] = Patient 17, De novo DLBCL, DRB1-0301, group No significant response, ± SD
[16] = Patient 18, De novo DLBCL, DRB1-0401, group No significant response, ± SD
[17] = Patient 19, De novo DLBCL, DRB1-1104, group No significant response, ± SD
[18] = Patient 20, De novo DLBCL, DRB1-1303, group No significant response, ± SD
[19] = Patient 21, De novo DLBCL, DRB1-0301, group No significant response, ± SD
[20] = Patient 24, De novo DLBCL, DRB1-1301, group Significant response, ± SD
[21] = Patient 28, Trans DLBCL, DRB1-0701, group No significant response, ± SD
[22] = Patient 37, Trans DLBCL, DRB1-0103, group Significant response, ± SD
[23] = Patient 48, T-cell rich DLBCL, DRB1-0301, group Significant response, ± SD
[24] = Patient 61, De novo DLBCL, DRB1-0401, group No significant response, ± SD

Row | Sequence | γ-IFN response to peptides [1, 6] | γ-IFN response to peptides [1, 7] | γ-IFN response to peptides [1, 8] | γ-IFN response to peptides [1, 9] | γ-IFN response to peptides [1, 10] | γ-IFN response to peptides [1, 11] | γ-IFN response to peptides [1, 12] | γ-IFN response to peptides [1, 13] | γ-IFN response to peptides [1, 14] | γ-IFN response to peptides [1, 15] | γ-IFN response to peptides [1, 16] | γ-IFN response to peptides [1, 17] | γ-IFN response to peptides [1, 18] | γ-IFN response to peptides [1, 19] | γ-IFN response to peptides [1, 20] | γ-IFN response to peptides [1, 21] | γ-IFN response to peptides [1, 22] | γ-IFN response to peptides [1, 23] | γ-IFN response to peptides [1, 24] | γ-IFN response to peptides ([2]; Healthy donor HD 1, DRB1-0102) | further results
1 | AENISSLLGHLPAEIVGKKL (listed as Homo sapiens) [PASD1(8)] | 32 ± 3 | 36 ± 6 | 18 ± 2 | 28 ± 4 | 20 ± 4 | 12 ± 3 | 36 ± 4 | 24 ± 4 | 10 ± 1 | 14 ± 2 | 20 ± 2 | 24 ± 2 | 18 ± 2 | 14 ± 2 | 28 ± 4 | 16 ± 2 | 16 ± 2 | 40 ± 6 | 12 ± 2 | 18 ± 2 | γ-IFN response to peptides ([2]; Healthy donor HD 2, DRB1-0401): 10 ± 2; γ-IFN response to peptides ([2]; Healthy donor HD 3, DRB1-0401): 6 ± 2; γ-IFN response to peptides ([2]; Healthy donor HD 4, DRB1-0301): 10 ± 2; γ-IFN response to peptides ([2]; Healthy donor HD 5, DRB1-0301): 10 ± 2
2 | DESFRKYTAFTIPSMNNETP (Human immunodeficiency virus type 1) [HIV-1, control irrelevant peptide from HIV-1 reverse transcriptase used with the TH peptides, reference compound] | 2 ± 1 | 16 ± 2 | 8 ± 2 | 14 ± 2 | 12 ± 4 | 4 ± 2 | 16 ± 4 | 12 ± 2 | 14 ± 4 | 10 ± 2 | 14 ± 2 | 12 ± 2 | 10 ± 2 | 10 ± 2 | 8 ± 2 | 6 ± 2 | 16 ± 2 | 12 ± 2 | 12 ± 2 | 8 ± 2 | γ-IFN response to peptides ([2]; Healthy donor HD 2, DRB1-0401): 6 ± 2; γ-IFN response to peptides ([2]; Healthy donor HD 3, DRB1-0401): 1 ± 1; γ-IFN response to peptides ([2]; Healthy donor HD 4, DRB1-0301): 10 ± 2; γ-IFN response to peptides ([2]; Healthy donor HD 5, DRB1-0301): 8 ± 2
3 | DGFMITLSTDGVIICVAENI (listed as Homo sapiens) [PASD1(7)] | 28 ± 4 | 46 ± 8 | 26 ± 4 | 44 ± 4 | 18 ± 2 | 18 ± 2 | 26 ± 2 | 36 ± 4 | 32 ± 2 | 18 ± 4 | 26 ± 2 | 26 ± 2 | 14 ± 2 | 10 ± 2 | 38 ± 4 | 22 ± 6 | 32 ± 6 | 56 ± 6 | 10 ± 4 | 20 ± 2 | TH γ-IFN response to peptides at time of diagnosis and after one year ([1]; DLBCL patients (FIG. 5), short term culture, p<0.05): significant; γ-IFN response to peptides ([1]; PBMCs from a DLBCL patient stimulated in culture with PASD1(6) or PASD1(7) peptides, +/− SD): 26 +/− 2; immunogenicity among patients studied ([1]; TH γ-IFN response, DLBCL patients): immunogenic in the majority of patients; γ-IFN response to the PASD1(1) CTL peptide elicited by culture with the peptide ([1]; cells cultured 8-10 days with PASD1(6) or PASD1(7), Table 4): comparable; order of immunogenicity for eliciting TH cell responses ([1]; from γ-IFN release assay, order PASD1(6), PASD1(7), PASD1(10), PASD1(9), PASD1(8)): most immunogenic; γ-IFN response to peptides ([2]; Healthy donor HD 2, DRB1-0401): 8 ± 2; γ-IFN response to peptides ([2]; Healthy donor HD 3, DRB1-0401): 10 ± 2; γ-IFN response to peptides ([2]; Healthy donor HD 4, DRB1-0301): 20 ± 2; γ-IFN response to peptides ([2]; Healthy donor HD 5, DRB1-0301): 22 ± 2; lysis by TH cell lines specific for the peptide [3]: Significant dose dependent lysis; lysis by TH cell lines specific for the peptide [4]: no significant lysis; lysis by TH cell lines specific for the peptide [5]: Significant dose dependent lysis
